The numbers were not newly measured in patent publication US20210123869A1, “METHOD FOR MEASURING PH OF TEST WATER” (MIURA CO., LTD., priority 2018, published 2021), which cites them from elsewhere.

The conditions of this series: value at 25° C.; two values for reagents acid-dissociated in two stages.
Turning to `Cc1c(C2(c3cc(Br)c(O)c(Br)c3C)OS(=O)(=O)c3ccccc32)cc(Br)c(O)c1Br` [bromocresol green], the “acid dissociation constant (pKa)” value is given as 4.7.

For `Cc1cc(C2(c3cc(C)c(O)c(Br)c3)OS(=O)(=O)c3ccccc32)cc(Br)c1O` [bromocresol purple], the “acid dissociation constant (pKa)” value was 6.3.

As to alizarin yellow, the “acid dissociation constant (pKa)” value was 11.06.
